One may read the IC50 as the midpoint of a concentration-inhibition curve.

Structures are written as SMILES.

Assay [1] has as its target His6-TEV-PDGFRβ (557-1016) (Homo sapiens (Human), UniProt P09619). Put plainly: PDGFRβ HTRF Assay. Type of assay: biochemical. As to conditions: 800 μM ATP, 0.5 μM TK-substrate biotin peptide, 30 min pre-incubation, 3 hours reaction; read-out: PDGFR HTRF IC50. As to the method:
Instrumentation: a. Compound liquid handling: LabCyte Echo; b. Reagent liquid handling: Thermo Scientific Multidrop Combi; c. BMG PHERAStar multilabel plate reader.
Protein Reagent: His6-TEV-PDGFRβ Protein Prep prepared at Accelagen.
Assay buffer stock solution, contains 50 mM Hepes, 10 mM MgCl2, 1 mM EGTA, and 0.01% Brij-35, 0.01% ovalbumin, 2 mM DTT at pH 7.5, in molecular biology grade water. Store at room temperature.
Assay buffer. Dilute 5× Kinase buffer 5-fold with molecular biology grade water and add DTT to 2 mM and ovalbumin to 0.1 mg/mL (or 0.01%).
2× protein solution. Make a working solution of […] PDGFRβ in assay buffer. Keep on ice until use to maintain enzyme stability.
2× substrate solution. Make a working solution of 1.6 mM ATP and 1 μM TK-substrate biotin peptide in assay buffer. 3× quench/detection solution.
Step 2. PDGFRβ E+I pre-incubation: Add 2 μL 2× protein solution to columns 1-24 using the Multidrop Combi. Centrifuge at 1000 rpm for 1 min. Incubate 30 min at RT
Step 2. Enzymatic reaction: Add 2 μL substrate solution to columns 1-24 to initiate the reaction using the Multidrop Combi; cover/seal the assay plate to reduce evaporation. Centrifuge at 1000 rpm for 1 min. Incubate at room temperature for 3 hours.
Final concentrations of components in PDGFRp cascade assay:
0.5 μM TK-substrate biotin peptide
Step 3. Quench/Detection: Add 2 μl 3× quench/detection solution to columns 1-24 using the Multidrop Combi; cover/seal the plate. Centrifuge 1 min 1000 rpm. Incubate at RT for 60 min.
HTRF ratio values calculated by the instrument (Ratio is acceptor counts/donor counts*10,000) is exported from the plate reader and used in data analysis. The exported data will be used to calculate 1) compound activity and 2) assay statistics. […] Assay statistics can include Robust Z′ and Signal to Background.
% Inhibition Calculation: Percent inhibition will be calculated for sample wells based on the equation: […]
IC50 Calculation: For IC50 determination, full 11-point dose response data will be processed using the following equation: […]
For orientation: TR-FRET usually uses a lanthanide donor and a delayed reading to cut background.

Assay [2] concerns the target VEGFR2, unphosphorylated (Homo sapiens (Human), UniProt P35968). Nature of the assay: VEGFR ADP GLO assay. Type of assay: biochemical. As to conditions: 5 nM VEGFR2, 1.2 mM ATP, 1 mg/mL Srctide, 180 min. In a few lines:
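Unphosphorylated kinase (10 nM 2× solution) pre-incubated 30 min at RT with compounds (11-point, 3-fold, top 10 µM), then reacted 180 min with srctide and ATP (2×: 2 mg/mL, 2.4 mM) in HEPES pH 7.5 buffer. ADP read by luminescence. IC50 from 4-parameter fit, normalized to DMSO and 1 µM TAK-593.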
(ADP-Glo turns the ADP formed in a reaction into a luminescent signal.)

Assay [3] deals with PDGFRβ (Rattus norvegicus (Rat), UniProt Q05030). Nature of the assay: PDGFRβ Cellular Assay (PDGFRb P-Y751 HTRF, PDGF-BB stimulated A10 cells). Type of assay: cell-based. Particulars: A10 cells, 3 hours compound, 15 ng/mL PDGFbb for 10 minutes; read-out: PDGFR Cellular IC50. In a few lines:
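Rat A10 cells plated overnight were treated with compound for 3 h, stimulated with rat PDGF-BB (working stock 100 ng/mL in 10% FBS medium) for 10 min, then lysed.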

The target in assay [4] is Tb-labeled inactive PDGFRβ (Homo sapiens (Human), UniProt P09619). Put plainly: biochemical. As to conditions: read-out: PDGFR Lantha IC50. The class given is binding.
Sequence of Tb-labeled inactive PDGFRβ (P09619 whole entry, looked up): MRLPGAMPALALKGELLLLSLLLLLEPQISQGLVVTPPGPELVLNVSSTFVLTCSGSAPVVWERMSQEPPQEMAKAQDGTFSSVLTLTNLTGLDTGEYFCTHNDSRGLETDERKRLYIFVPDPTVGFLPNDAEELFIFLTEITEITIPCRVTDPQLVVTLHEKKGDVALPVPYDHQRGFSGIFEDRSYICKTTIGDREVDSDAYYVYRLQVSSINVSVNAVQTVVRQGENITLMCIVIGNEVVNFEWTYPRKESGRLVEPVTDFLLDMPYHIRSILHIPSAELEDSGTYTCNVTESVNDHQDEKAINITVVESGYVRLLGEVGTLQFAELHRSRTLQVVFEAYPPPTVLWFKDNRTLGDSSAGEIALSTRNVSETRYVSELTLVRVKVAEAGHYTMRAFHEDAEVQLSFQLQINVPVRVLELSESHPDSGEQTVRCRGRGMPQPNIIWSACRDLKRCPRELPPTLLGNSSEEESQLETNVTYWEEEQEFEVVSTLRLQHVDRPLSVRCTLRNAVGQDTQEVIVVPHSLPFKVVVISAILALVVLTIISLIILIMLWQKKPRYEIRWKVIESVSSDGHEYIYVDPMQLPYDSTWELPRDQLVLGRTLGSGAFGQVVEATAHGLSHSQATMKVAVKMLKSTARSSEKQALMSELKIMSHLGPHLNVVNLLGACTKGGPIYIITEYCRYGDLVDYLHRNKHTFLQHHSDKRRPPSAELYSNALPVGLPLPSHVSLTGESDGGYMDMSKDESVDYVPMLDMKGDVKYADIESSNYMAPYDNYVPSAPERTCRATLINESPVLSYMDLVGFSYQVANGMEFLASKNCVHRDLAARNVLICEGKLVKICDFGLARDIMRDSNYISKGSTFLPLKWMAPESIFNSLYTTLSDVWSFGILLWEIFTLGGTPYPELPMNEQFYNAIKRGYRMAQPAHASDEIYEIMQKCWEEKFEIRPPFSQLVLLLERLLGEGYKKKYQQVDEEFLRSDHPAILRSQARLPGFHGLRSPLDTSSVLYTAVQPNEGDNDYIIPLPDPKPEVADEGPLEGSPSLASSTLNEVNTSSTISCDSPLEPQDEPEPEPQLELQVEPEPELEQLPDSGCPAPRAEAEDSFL

Sequence of VEGFR2, unphosphorylated (P35968 whole entry, looked up): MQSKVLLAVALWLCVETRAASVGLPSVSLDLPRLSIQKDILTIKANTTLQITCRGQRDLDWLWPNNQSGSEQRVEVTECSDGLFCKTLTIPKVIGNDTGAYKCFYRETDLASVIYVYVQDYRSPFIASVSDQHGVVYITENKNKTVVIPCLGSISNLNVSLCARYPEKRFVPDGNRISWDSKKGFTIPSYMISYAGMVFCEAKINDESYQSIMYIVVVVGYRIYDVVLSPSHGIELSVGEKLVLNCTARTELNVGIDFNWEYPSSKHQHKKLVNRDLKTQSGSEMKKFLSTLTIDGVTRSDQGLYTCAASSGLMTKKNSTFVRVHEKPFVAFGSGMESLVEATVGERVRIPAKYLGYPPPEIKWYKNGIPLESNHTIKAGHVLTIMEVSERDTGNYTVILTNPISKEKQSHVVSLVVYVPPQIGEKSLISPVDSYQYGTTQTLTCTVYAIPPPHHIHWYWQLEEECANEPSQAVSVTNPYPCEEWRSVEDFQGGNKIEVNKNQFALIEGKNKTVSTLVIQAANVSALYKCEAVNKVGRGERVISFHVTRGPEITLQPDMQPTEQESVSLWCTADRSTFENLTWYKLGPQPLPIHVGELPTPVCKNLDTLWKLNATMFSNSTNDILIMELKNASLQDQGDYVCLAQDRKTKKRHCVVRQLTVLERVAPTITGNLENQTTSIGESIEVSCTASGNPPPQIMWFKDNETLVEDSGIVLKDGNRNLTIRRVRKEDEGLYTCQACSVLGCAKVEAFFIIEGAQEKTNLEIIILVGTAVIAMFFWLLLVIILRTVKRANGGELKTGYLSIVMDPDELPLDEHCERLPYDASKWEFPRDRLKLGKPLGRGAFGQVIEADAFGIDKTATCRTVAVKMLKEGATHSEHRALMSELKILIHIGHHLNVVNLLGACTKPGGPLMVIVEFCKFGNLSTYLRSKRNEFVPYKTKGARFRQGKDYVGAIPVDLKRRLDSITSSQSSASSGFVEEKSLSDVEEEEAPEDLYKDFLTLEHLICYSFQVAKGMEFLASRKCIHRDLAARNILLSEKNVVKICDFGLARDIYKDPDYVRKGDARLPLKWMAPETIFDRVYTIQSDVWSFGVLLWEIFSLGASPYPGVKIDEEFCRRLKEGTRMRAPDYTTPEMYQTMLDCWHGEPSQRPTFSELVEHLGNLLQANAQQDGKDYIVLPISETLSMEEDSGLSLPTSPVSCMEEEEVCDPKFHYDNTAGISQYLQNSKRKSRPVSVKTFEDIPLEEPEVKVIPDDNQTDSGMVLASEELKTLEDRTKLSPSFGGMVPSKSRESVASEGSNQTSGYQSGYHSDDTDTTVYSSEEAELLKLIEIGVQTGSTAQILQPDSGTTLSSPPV
Sequence of PDGFRβ (Q05030 whole entry, looked up): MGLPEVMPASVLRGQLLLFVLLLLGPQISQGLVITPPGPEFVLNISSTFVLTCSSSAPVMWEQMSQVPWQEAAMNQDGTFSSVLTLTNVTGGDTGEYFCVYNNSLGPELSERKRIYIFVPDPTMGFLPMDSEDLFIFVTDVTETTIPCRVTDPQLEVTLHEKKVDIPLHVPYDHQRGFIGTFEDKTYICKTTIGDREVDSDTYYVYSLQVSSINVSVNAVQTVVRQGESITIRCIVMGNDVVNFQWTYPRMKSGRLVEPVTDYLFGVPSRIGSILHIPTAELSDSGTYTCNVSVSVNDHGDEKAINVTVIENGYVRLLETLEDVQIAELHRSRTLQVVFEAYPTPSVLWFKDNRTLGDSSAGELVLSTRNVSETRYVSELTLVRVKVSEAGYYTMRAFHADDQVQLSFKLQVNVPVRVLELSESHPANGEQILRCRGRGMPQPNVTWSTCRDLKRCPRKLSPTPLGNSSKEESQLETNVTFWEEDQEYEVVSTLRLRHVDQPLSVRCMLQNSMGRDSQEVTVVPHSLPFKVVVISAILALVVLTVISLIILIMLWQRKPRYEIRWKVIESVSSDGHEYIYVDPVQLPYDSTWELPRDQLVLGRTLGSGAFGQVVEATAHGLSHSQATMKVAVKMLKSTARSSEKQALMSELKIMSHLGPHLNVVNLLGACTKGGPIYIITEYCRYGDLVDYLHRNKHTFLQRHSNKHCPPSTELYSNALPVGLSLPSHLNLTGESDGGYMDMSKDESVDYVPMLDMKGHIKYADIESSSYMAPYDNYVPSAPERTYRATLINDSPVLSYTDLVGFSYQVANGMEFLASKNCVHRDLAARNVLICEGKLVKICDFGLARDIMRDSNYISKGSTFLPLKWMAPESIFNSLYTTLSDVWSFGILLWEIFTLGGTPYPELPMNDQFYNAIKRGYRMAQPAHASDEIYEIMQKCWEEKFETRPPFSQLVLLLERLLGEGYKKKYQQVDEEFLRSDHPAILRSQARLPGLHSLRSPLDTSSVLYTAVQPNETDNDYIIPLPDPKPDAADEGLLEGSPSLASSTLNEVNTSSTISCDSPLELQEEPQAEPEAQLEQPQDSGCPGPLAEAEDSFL
Sequence of His6-TEV-PDGFRβ (557-1016) (P09619 whole entry, looked up): as the sequence (P09619 whole entry, looked up) above

As for `Cc1ncc(C(=O)NCCN2CCCC[C@@H]2C)cc1Nc1nn(C)c2nc(Nc3cncnc3)ncc12` [Example 5, (S)-6-methyl-5-((1-methyl-6-(pyrimidin-5-ylamino)-1H-pyrazolo[3,4-d]pyrimidin-3-yl)amino)-N-(2-(2-methylpiperidin-1-yl)ethyl)nicotinamide], the IC50 turned out to be 0.65 nM in assay [1], 2070 nM in assay [2], 67.5 nM in assay [3] and 5.3 nM in assay [4].

For `Cc1ncc(C(=O)NCCN2CCCC2(C)C)cc1Nc1nn(C)c2nc(Nc3cncc(CC(=O)O)c3)ncc12` [Example 33, 2-(5-((3-((5-((2-(2,2-dimethylpyrrolidin-1-yl)ethyl)carbamoyl)-2-methylpyridin-3-yl)amino)-1-methyl-1H-pyrazolo[3,4-d]pyrimidin-6-yl)amino)pyridin-3-yl)acetic acid], the IC50 was 1.21 nM in assay [1], 2190 nM in assay [2], greater than 3000 nM in assay [3] and 8.8 nM in assay [4].

`Cc1ncc(C(=O)NCCN2CCC3(CC3)C2)cc1Nc1nn(C)c2nc(Nc3cncnc3)ncc12` [Example 58, N-(2-(5-azaspiro[2.4]heptan-5-yl)ethyl)-6-methyl-5-((1-methyl-6-(pyrimidin-5-ylamino)-1H-pyrazolo[3,4-d]pyrimidin-3-yl)amino)nicotinamide]: the concentration for half-maximal inhibition (IC50) is 0.36 nM in assay [1], greater than 7500 nM in assay [2], 101 nM in assay [3] and 4.8 nM in assay [4].

With `Cc1ncc(C(=O)NCCN2CCCC2(C)C)cc1Nc1nn(C)c2nc(Nc3ccc(=O)n(C)n3)ncc12` [Example 31, N-(2-(2,2-dimethylpyrrolidin-1-yl)ethyl)-6-methyl-5-((1-methyl-6-((1-methyl-6-oxo-1,6-dihydropyridazin-3-yl)amino)-1H-pyrazolo[3,4-d]pyrimidin-3-yl)amino)nicotinamide], the IC50 in assay [1] was 2.5 nM; in assay [2] it was greater than 7500 nM; in assay [3] it was 390 nM; in assay [4], 60.3 nM.

Take `Cc1ncc(C(=O)NCCN2CCCC2(C)C)cc1Nc1nn(C)c2nc(Nc3ccc(=O)[nH]c3)ncc12` [Example 35, N-(2-(2,2-dimethylpyrrolidin-1-yl)ethyl)-6-methyl-5-((1-methyl-6-((6-oxo-1,6-dihydropyridin-3-yl)amino)-1H-pyrazolo[3,4-d]pyrimidin-3-yl)amino)nicotinamide]: the half-inhibitory concentration (IC50) is 0.68 nM in assay [1], greater than 7500 nM in assay [2], 1650 nM in assay [3] and 4.7 nM in assay [4].

For `Cc1ncc(C(=O)NCCN2C[C@H](C)O[C@@H](C)C2)cc1Nc1nn(C)c2nc(Nc3ccncc3)ncc12` [Example 115, N-(2-((2S,6S)-2,6-dimethylmorpholino)ethyl)-6-methyl-5-((1-methyl-6-(pyridin-4-ylamino)-1H-pyrazolo[3,4-d]pyrimidin-3-yl)amino)nicotinamide], the 50% inhibitory concentration (IC50) in assay [1] was 0.48 nM; in assay [2], greater than 7500 nM; in assay [3], 20.6 nM; in assay [4] it was 3.9 nM.

Turning to `Cc1cc(Nc2ncc3c(Nc4cc(C(=O)NCCN5CCC[C@@H]5C)cnc4C)nn(C)c3n2)n(C)n1` [Example 158, (S)-5-((6-((1,3-dimethyl-1H-pyrazol-5-yl)amino)-1-methyl-1H-pyrazolo[3,4-d]pyrimidin-3-yl)amino)-6-methyl-N-(2-(2-methylpyrrolidin-1-yl)ethyl)nicotinamide], the 50% inhibitory concentration (IC50) was 2.63 nM in assay [1], greater than 7500 nM in assay [2], 147 nM in assay [3] and 22.3 nM in assay [4].

Consider `COCCn1cc(Nc2ncc3c(Nc4cc(NC(=O)CN5CCC[C@@H]5C)cnc4C)nn(C)c3n2)cn1` [Example 128, (S)—N-(5-((6-((1-(2-methoxyethyl)-1H-pyrazol-4-yl)amino)-1-methyl-1H-pyrazolo[3,4-d]pyrimidin-3-yl)amino)-6-methylpyridin-3-yl)-2-(2-methylpyrrolidin-1-yl)acetamide], for which the IC50 in assay [1] was 0.47 nM; in assay [2], greater than 7500 nM; in assay [3], 4.5 nM; in assay [4], 3.6 nM.

As to `Cc1ncc(C(=O)NCCN2CCCC2(C)C)cc1Nc1nn(C)c2nc(Nc3ccc(=O)[nH]n3)ncc12` [Example 36, N-(2-(2,2-dimethylpyrrolidin-1-yl)ethyl)-6-methyl-5-((1-methyl-6-((6-oxo-1,6-dihydropyridazin-3-yl)amino)-1H-pyrazolo[3,4-d]pyrimidin-3-yl)amino) nicotinamide], the IC50 in assay [1] is 4.11 nM; in assay [2], greater than 7500 nM; in assay [3], greater than 3000 nM; in assay [4], 88.3 nM.

Regarding `COCCn1cc(Nc2ncc3c(Nc4cc(NC(=O)CN5CCCC5(C)C)cnc4C)nn(C)c3n2)cn1` [Example 125, 2-(2,2-dimethylpyrrolidin-1-yl)-N-(5-((6-((1-(2-methoxyethyl)-1H-pyrazol-4-yl)amino)-1-methyl-1H-pyrazolo[3,4-d]pyrimidin-3-yl)amino)-6-methylpyridin-3-yl)acetamide], the concentration for half-maximal inhibition (IC50) in assay [1] is 0.34 nM; in assay [2], greater than 7500 nM; in assay [3], 2.7 nM; in assay [4], 1.7 nM.

As to `Cc1ncc(C(=O)NCCN2CC(C)CC(C)C2)cc1Nc1nn(C)c2nc(Nc3cnn(C)c3)ncc12` (stereo not drawn) [Example 87, N-(2-(3,5-dimethylpiperidin-1-yl)ethyl)-6-methyl-5-((1-methyl-6-((1-methyl-1H-pyrazol-4-yl)amino)-1H-pyrazolo[3,4-d]pyrimidin-3-yl)amino)nicotinamide], the half-inhibitory concentration (IC50) in assay [1] is 0.29 nM; in assay [2], greater than 7500 nM; in assay [3] it was 11.5 nM; in assay [4] it was 2.3 nM.

Turning to `Cc1ncc(C(=O)NCCN(CCF)C2CCCC2)cc1Nc1nn(C)c2nc(Nc3cnn(C)c3)ncc12` [Example 152, N-(2-(cyclopentyl(2-fluoroethyl)amino)ethyl)-6-methyl-5-((1-methyl-6-((1-methyl-1H-pyrazol-4-yl)amino)-1H-pyrazolo[3,4-d]pyrimidin-3-yl)amino)nicotinamide], the IC50 turned out to be 0.45 nM in assay [1], 2530 nM in assay [2], 7.4 nM in assay [3] and 3.4 nM in assay [4].

`COC1CCN(CCNC(=O)c2cc(C)c(Nc3nn(C)c4nc(Nc5cnn(C)c5)ncc34)s2)CC1` [Example 49, N-(2-(4-methoxypiperidin-1-yl)ethyl)-4-methyl-5-((1-methyl-6-((1-methyl-1H-pyrazol-4-yl)amino)-1H-pyrazolo[3,4-d]pyrimidin-3-yl)amino)thiophene-2-carboxamide]: the half-maximal inhibitory concentration (IC50) in assay [1] was 1.17 nM; in assay [2], greater than 7500 nM; in assay [3], 105 nM; in assay [4], 40.2 nM.

As to `Cc1ncc(C(=O)NCCN2CC3CCC2CC3)cc1Nc1nn(C)c2nc(Nc3cnn(C)c3)ncc12` [Example 85, N-(2-(2-azabicyclo[2.2.2]octan-2-yl)ethyl)-6-methyl-5-((1-methyl-6-((1-methyl-1H-pyrazol-4-yl)amino)-1H-pyrazolo[3,4-d]pyrimidin-3-yl)amino)nicotinamide], the IC50 in assay [1] was found to be 0.27 nM; in assay [2], 6600 nM; in assay [3] it was 71.3 nM; in assay [4], 1.7 nM.

For the molecule `Cc1ncc(C(=O)NCCN2CCCC2(C)C)cc1Nc1nn(C)c2nc(Nc3ccnn3C)ncc12` [Example 157, N-(2-(2,2-dimethylpyrrolidin-1-yl)ethyl)-6-methyl-5-((1-methyl-6-((1-methyl-1H-pyrazol-5-yl)amino)-1H-pyrazolo[3,4-d]pyrimidin-3-yl)amino)nicotinamide], the IC50 in assay [1] is 3.39 nM; in assay [2] it was greater than 7500 nM; in assay [3], 110 nM; in assay [4], 32.9 nM.
